Data taken from publication PMC2813745, “A novel inhibitor of the PI3K/Akt pathway based on the structure of inositol 1,3,4,5,6-pentakisphosphate” (British Journal of Cancer, 2010).

Columns and labels:
[1] = molecular target: PIK3CA/PIK3R1(p110α/p85α) (Homo sapiens, UniProt P42336); assay: SelectScreen kinase profiling: PIK3CA/PIK3R1; type: biochemical; conditions: [ATP] 25 µM
Procedure: (§1) Effect of the indicated compounds on the activity of various kinases was assessed by SelectScreen Kinase Profiling Service (Invitrogen-Life Technologies, Paisley, UK). Assays were performed using 1 μM of the tested compounds and ATP concentration as indicated in the corresponding tables. In the case of […] a screen using 10 μM of the compound was also carried out, as indicated in the corresponding table.

CAMK2A (CaMKII alpha) = CAMK2A (CaMKII alpha) (Homo sapiens, UniProt Q9UQM7); assay: SelectScreen kinase profiling: CAMK2A; type: biochemical; conditions: [ATP] 10 µM
Procedure: as §1

MAPKAPK2 = MAPKAPK2 (Homo sapiens, UniProt P49137); assay: SelectScreen kinase profiling: MAPKAPK2; type: biochemical; conditions: 1 µM compound; [ATP] 5 µM
Procedure: as §1

MARK1 (MARK) = MARK1 (MARK) (Homo sapiens, UniProt Q9P0L2); assay: SelectScreen kinase profiling: MARK1; type: biochemical; conditions: [ATP] 5 µM
Procedure: as §1

PRKACA (PKA) = PRKACA (PKA) (Homo sapiens, UniProt P17612); assay: SelectScreen kinase profiling: PRKACA; type: biochemical; conditions: [ATP] 5 µM
Procedure: as §1

MAP2K2 (MEK2) = MAP2K2 (MEK2) (Homo sapiens, UniProt P36507); assay: SelectScreen kinase profiling: MAP2K2; type: biochemical; conditions: [ATP] 100 µM
Procedure: as §1

MAPK14 (p38α) = MAPK14 (p38α) (Homo sapiens, UniProt Q16539); assay: SelectScreen kinase profiling: MAPK14; type: biochemical; conditions: 1 µM compound; [ATP] 100 µM
Procedure: as §1

CSNK1G1 (CK1γ1) = CSNK1G1 (CK1γ1) (Homo sapiens, UniProt Q9HCP0); assay: SelectScreen kinase profiling: CSNK1G1; type: biochemical; conditions: [ATP] 5 µM
Procedure: as §1

AMPK A2/B1/G1 = AMPK A2/B1/G1 (Homo sapiens, UniProt P54646); assay: SelectScreen kinase profiling: AMPK A2/B1/G1; type: biochemical; conditions: 1 µM compound; [ATP] 150 µM
Procedure: as §1

RAF1 (cRAF) Y340D Y341D = RAF1 (cRAF) Y340D Y341D (Homo sapiens, UniProt P04049, Y340D/Y341D); assay: SelectScreen kinase profiling: RAF1; type: biochemical; conditions: [ATP] 100 µM
Procedure: as §1

RPS6KA1 (RSK1) = RPS6KA1 (RSK1) (Homo sapiens, UniProt Q15418); assay: SelectScreen kinase profiling: RPS6KA1; type: biochemical; conditions: [ATP] 5 µM
Procedure: as §1

PRKCB1 (PKCβI) = PRKCB1 (PKCβI) (Homo sapiens, UniProt P05771); assay: SelectScreen kinase profiling: PRKCB1; type: biochemical; conditions: [ATP] 200 µM
Procedure: as §1

RPS6KB1 (p70S6K) = RPS6KB1 (p70S6K) (Homo sapiens, UniProt P23443); assay: SelectScreen kinase profiling: RPS6KB1; type: biochemical; conditions: [ATP] 10 µM
Procedure: as §1

[2] = molecular target: PIK3CD/PIK3R1(p110δ/p85α) (Homo sapiens, UniProt O00329); assay: SelectScreen kinase profiling: PIK3CD/PIK3R1; type: biochemical; conditions: [ATP] 25 µM
Procedure: as §1

CDK5/p35 = CDK5/p35 (Homo sapiens, UniProt Q00535); assay: SelectScreen kinase profiling: CDK5/p35; type: biochemical; conditions: [ATP] 10 µM
Procedure: as §1

PRKCZ (PKCζ) = PRKCZ (PKCζ) (Homo sapiens, UniProt Q05513); assay: SelectScreen kinase profiling: PRKCZ; type: biochemical; conditions: [ATP] 5 µM
Procedure: as §1

IKBKB (IKKβ) = IKBKB (IKKβ) (Homo sapiens, UniProt O14920); assay: SelectScreen kinase profiling: IKBKB; type: biochemical; conditions: 1 µM compound; [ATP] 5 µM
Procedure: as §1

GRK5 = GRK5 (Homo sapiens, UniProt P34947); assay: SelectScreen kinase profiling: GRK5; type: biochemical; conditions: 1 µM compound; [ATP] 5 µM
Procedure: as §1

BTK = BTK (Homo sapiens, UniProt Q06187); assay: SelectScreen kinase profiling: BTK; type: biochemical; conditions: [ATP] 25 µM
Procedure: as §1

Toxicity in mice = type: in vivo, nude CD-1 mice; conditions: for body weight of the treated animals / toxicity: 12.5, 25, 50 mg kg^−1 day^−1 i.p., 14 consecutive days; for toxic effect: single dose 750 mg kg^−1 i.p.
Procedure: Each group consisted of 2–3 mice. Body weight, deaths and any other sign of toxicity and changes in behaviour (such as motility, eating and drinking habits) were recorded.
Exponentially growing PC3 cells were harvested, washed twice and resuspended in PBS at a concentration of 2.5 × 10^7 cells ml^−1. A suspension of 5 × 10^6 PC3 cells was injected subcutaneously (s.c.) into the left flank of the recipient mice. When tumours reached a size of ∼70 mm^3 (approximately 15 days after tumour cell implant), mice were divided into seven groups (n=7). […] Control mice were treated with water in an equal volume. The diameters of s.c. growing tumours were measured with a caliper twice a week and the experiment was ended at day 28 after the implantation.
The inositol compounds (12.5–25–50 mg kg^−1 day^−1) and vehicle (water) were given daily by intraperitoneal (i.p.) injections for 14 consecutive days (days 15–28). Tumour size was assessed twice weekly. (A, B) Tumour growth in 2-O-Bn-InsP5-treated mice (A) and InsP5-treated mice (B) compared with control group measured for the duration of the experiment. Results are expressed as mean±s.e. (C) Top: Table showing all P-values for the indicated doses of 2-O-Bn-InsP5 compared to controls at the indicated days of treatment (NS=not significant). Bottom: In vivo anti-tumour activity parameters. The percentage of tumour weight inhibition (TWI%), the tumour growth delay (T−C) and the log cell kill (LCK) were calculated as described in the MATERIALS AND METHODS section. The highest inhibition of tumour volume is reported. […] Tumours were excised 24 h after treatment. Phosphorylation of Akt at its residues Ser473 and Thr308 was assessed by using specific antibodies. Membranes were then stripped and re-probed with an anti-Akt antibody.

Chain of RAF1 (cRAF) Y340D Y341D (P04049 whole entry Y340D/Y341D): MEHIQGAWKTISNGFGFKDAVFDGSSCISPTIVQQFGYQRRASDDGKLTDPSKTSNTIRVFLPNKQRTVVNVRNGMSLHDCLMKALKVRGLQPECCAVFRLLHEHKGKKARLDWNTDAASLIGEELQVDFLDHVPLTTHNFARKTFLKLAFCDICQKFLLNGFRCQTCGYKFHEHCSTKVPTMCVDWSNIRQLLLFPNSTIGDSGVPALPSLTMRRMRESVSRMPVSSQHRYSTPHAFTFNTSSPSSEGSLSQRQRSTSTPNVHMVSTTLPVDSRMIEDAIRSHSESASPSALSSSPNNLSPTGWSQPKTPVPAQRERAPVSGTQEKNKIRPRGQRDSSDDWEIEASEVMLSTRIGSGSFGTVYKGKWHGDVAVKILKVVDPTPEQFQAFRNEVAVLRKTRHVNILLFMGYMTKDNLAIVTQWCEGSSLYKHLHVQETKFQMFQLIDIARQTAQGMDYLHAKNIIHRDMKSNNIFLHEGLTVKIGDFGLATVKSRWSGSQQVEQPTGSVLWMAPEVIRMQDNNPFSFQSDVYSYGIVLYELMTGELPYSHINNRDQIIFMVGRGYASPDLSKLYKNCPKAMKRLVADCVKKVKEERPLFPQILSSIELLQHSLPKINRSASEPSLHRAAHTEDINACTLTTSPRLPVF
Chain of MAPK14 (p38α) (Q16539 whole entry): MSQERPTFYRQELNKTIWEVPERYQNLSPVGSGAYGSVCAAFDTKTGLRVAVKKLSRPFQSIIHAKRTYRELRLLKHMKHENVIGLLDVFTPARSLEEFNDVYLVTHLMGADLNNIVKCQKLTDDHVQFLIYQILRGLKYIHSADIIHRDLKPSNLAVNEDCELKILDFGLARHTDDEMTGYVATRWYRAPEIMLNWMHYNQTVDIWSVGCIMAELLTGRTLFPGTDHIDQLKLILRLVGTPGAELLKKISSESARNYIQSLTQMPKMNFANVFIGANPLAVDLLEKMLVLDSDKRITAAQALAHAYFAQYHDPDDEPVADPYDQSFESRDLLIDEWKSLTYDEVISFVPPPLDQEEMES
Chain of BTK (Q06187 whole entry): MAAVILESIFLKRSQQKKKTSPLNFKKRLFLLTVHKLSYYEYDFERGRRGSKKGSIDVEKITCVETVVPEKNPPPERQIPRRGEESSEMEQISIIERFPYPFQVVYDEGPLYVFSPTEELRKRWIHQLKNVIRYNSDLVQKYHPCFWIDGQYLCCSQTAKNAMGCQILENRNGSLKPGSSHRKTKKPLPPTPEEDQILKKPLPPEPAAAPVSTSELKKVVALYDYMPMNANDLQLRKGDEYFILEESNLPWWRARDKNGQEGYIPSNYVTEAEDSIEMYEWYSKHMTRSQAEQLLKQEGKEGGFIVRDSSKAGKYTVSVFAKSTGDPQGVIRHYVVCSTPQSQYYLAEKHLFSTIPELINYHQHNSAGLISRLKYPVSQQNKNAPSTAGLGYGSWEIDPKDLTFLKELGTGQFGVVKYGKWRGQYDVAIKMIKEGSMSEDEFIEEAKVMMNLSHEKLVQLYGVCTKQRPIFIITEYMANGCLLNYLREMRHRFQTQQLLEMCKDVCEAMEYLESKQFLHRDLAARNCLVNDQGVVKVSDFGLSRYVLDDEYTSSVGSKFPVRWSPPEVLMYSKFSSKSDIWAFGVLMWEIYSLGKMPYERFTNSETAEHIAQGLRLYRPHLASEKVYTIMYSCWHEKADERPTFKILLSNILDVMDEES
Chain of MAP2K2 (MEK2) (P36507 whole entry): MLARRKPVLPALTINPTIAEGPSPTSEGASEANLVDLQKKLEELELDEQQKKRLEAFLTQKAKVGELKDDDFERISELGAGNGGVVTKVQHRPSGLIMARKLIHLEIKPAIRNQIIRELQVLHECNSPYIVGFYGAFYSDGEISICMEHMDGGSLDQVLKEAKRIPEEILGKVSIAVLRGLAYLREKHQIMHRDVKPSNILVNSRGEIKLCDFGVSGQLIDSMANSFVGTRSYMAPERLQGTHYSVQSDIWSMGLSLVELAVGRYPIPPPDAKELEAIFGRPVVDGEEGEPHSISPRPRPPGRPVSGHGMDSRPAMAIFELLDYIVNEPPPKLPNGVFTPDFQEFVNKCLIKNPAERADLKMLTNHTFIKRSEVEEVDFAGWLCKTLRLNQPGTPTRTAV
Chain of GRK5 (P34947 whole entry): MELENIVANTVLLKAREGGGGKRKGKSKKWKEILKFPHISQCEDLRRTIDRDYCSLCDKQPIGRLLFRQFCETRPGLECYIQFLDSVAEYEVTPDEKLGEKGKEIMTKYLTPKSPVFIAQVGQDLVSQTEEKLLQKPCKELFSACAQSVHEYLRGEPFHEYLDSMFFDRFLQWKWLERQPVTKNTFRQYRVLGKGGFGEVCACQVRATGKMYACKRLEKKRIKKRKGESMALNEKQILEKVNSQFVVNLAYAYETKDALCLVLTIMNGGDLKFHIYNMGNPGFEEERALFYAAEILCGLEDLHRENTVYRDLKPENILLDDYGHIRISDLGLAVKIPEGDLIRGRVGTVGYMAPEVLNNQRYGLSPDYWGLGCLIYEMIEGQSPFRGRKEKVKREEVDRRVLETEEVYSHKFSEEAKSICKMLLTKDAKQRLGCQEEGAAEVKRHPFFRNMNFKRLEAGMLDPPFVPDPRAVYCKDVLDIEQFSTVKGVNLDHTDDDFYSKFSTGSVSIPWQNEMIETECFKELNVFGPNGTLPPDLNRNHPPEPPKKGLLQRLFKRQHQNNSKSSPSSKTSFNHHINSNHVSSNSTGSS
Chain of MARK1 (MARK) (Q9P0L2 whole entry): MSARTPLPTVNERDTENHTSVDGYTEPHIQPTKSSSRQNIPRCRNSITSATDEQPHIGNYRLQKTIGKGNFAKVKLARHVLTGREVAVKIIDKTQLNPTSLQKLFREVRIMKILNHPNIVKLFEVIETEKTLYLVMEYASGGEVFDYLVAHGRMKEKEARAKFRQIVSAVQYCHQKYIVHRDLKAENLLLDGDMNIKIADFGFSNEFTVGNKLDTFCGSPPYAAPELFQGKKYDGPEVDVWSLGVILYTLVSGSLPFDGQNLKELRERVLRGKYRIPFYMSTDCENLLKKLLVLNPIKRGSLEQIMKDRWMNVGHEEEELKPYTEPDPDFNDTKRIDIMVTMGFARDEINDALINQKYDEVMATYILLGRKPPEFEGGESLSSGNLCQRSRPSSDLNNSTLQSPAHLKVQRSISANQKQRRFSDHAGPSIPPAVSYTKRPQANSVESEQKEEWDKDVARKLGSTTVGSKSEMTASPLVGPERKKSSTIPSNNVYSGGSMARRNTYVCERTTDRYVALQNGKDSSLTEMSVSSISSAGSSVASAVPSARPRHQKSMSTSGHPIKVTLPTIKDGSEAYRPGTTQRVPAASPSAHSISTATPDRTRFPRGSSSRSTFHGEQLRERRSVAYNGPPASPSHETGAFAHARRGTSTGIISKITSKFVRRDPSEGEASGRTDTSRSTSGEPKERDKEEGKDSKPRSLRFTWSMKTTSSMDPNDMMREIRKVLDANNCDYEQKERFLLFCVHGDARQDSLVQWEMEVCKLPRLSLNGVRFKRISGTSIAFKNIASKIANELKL
Chain of PRKCZ (PKCζ) (Q05513 whole entry): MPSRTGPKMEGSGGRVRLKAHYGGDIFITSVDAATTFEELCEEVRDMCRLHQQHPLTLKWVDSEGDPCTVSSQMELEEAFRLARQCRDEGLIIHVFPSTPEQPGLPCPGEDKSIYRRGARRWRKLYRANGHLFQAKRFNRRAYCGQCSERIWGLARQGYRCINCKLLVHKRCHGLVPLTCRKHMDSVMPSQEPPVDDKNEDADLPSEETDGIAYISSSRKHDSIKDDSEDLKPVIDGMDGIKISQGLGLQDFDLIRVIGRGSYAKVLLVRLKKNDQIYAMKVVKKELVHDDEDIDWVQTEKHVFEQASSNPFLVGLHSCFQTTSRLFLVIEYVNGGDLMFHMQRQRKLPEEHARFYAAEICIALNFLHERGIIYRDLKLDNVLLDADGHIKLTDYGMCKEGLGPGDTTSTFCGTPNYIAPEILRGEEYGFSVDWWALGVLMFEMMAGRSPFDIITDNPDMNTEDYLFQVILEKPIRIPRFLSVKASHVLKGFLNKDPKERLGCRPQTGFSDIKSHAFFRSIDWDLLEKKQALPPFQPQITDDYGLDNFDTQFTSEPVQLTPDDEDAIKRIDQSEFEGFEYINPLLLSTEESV
Chain of RPS6KA1 (RSK1) (Q15418 whole entry): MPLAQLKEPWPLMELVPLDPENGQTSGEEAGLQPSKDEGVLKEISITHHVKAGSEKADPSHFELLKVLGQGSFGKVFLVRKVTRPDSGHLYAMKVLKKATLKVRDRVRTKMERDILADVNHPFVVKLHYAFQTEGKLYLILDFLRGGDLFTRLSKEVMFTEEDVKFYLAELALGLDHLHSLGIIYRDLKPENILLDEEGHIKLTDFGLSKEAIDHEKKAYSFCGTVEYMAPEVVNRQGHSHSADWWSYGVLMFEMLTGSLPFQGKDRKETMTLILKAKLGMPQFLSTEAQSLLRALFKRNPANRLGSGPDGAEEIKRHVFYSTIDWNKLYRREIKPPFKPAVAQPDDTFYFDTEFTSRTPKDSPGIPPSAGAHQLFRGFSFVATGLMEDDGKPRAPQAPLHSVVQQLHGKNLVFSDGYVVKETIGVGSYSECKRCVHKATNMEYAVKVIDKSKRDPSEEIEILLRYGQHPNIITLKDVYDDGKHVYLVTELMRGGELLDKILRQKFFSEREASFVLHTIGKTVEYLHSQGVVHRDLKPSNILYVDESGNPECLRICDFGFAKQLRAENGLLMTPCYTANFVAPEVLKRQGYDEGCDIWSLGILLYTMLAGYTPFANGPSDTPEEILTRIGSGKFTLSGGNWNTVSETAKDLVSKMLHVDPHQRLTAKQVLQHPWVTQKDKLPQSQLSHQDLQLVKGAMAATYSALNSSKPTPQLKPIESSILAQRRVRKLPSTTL

O=P(O)(O)OC1C(O)C(OP(=O)(O)O)C(OP(=O)(O)O)C(OP(=O)(O)O)C1OP(=O)(O)O (stereo not drawn) [InsP5, inositol 1,3,4,5,6-pentakisphosphate]
inhibition at 10 µM ([1]; 10 µM compound): 5%
inhibition at 10 µM (CAMK2A (CaMKII alpha); 10 µM compound): 17%
inhibition at 1 µM (MAPKAPK2): 4%
inhibition at 10 µM (MARK1 (MARK); 10 µM compound): 7%
inhibition at 10 µM (PRKACA (PKA); 10 µM compound): 5%
inhibition at 10 µM (MAP2K2 (MEK2); 10 µM compound): 3%
inhibition at 1 µM (MAPK14 (p38α)): 23%
inhibition at 10 µM (CSNK1G1 (CK1γ1); 10 µM compound): 13%
inhibition at 1 µM (AMPK A2/B1/G1): 7%
inhibition at 10 µM (RAF1 (cRAF) Y340D Y341D; 10 µM compound): 18%
inhibition at 10 µM (RPS6KA1 (RSK1); 10 µM compound): 12%
inhibition at 10 µM (PRKCB1 (PKCβI); 10 µM compound): 17%
inhibition at 10 µM (RPS6KB1 (p70S6K); 10 µM compound): 9%
inhibition at 10 µM ([2]; 10 µM compound): -2%
inhibition at 10 µM (CDK5/p35; 10 µM compound): 5%
inhibition at 10 µM (PRKCZ (PKCζ); 10 µM compound): -8%
inhibition at 1 µM (IKBKB (IKKβ)): 1%
inhibition at 1 µM (GRK5): 37%
inhibition at 10 µM (BTK; 10 µM compound): 8%
body weight of the treated animals (Toxicity in mice): not different from the untreated mice
toxicity (Toxicity in mice): no evidence of toxicity
toxic effect (Toxicity in mice): did not cause any major toxic effect

O=P(O)(O)OC1C(OCc2ccccc2)C(OP(=O)(O)O)C(OP(=O)(O)O)C(OP(=O)(O)O)C1OP(=O)(O)O (stereo not drawn) [2-O-Bn-InsP5, 2-O-benzyl-myo-inositol 1,3,4,5,6-pentakisphosphate]
inhibition at 1 µM ([1]; 1 µM compound): 2%
inhibition at 1 µM (CAMK2A (CaMKII alpha); 1 µM compound): -2%
inhibition at 1 µM (MAPKAPK2): 20%
inhibition at 1 µM (MARK1 (MARK); 1 µM compound): 0%
inhibition at 1 µM (PRKACA (PKA); 1 µM compound): 4%
inhibition at 1 µM (MAP2K2 (MEK2); 1 µM compound): 8%
inhibition at 1 µM (MAPK14 (p38α)): 30%
inhibition at 1 µM (CSNK1G1 (CK1γ1); 1 µM compound): 7%
inhibition at 1 µM (AMPK A2/B1/G1): 25%
inhibition at 1 µM (RAF1 (cRAF) Y340D Y341D; 1 µM compound): 5%
inhibition at 1 µM (RPS6KA1 (RSK1); 1 µM compound): 2%
inhibition at 1 µM (PRKCB1 (PKCβI); 1 µM compound): 11%
inhibition at 1 µM (RPS6KB1 (p70S6K); 1 µM compound): 17%
inhibition at 1 µM ([2]; 1 µM compound): 6%
inhibition at 1 µM (CDK5/p35; 1 µM compound): 2%
inhibition at 1 µM (PRKCZ (PKCζ); 1 µM compound): 10%
inhibition at 1 µM (IKBKB (IKKβ)): 13%
inhibition at 1 µM (GRK5): 34%
inhibition at 1 µM (BTK; 1 µM compound): 5%
body weight of the treated animals (Toxicity in mice): not different from the untreated mice
toxicity (Toxicity in mice): no evidence of toxicity
tolerability in vivo (Toxicity in mice; relative to the active dose): well tolerated in vivo even at concentrations 15 times higher the active dose
toxic effect (Toxicity in mice): did not cause any major toxic effect
